Laboratory results as given in patent US6620961B1, “Biarylalkylenecarbamic acid derivatives and bacteriocides for agricultural and horticultural use” (Kumiai Chemical Industry Co., Ltd., priority 1997, dated 2003).

Tests used:
[1] = test system: Erysiphe graminis; test: Test for Preventive Effect on Wheat Powdery Mildew; type: in vivo; design: key: A: No diseased area; B: Diseased area of less than 25%; C: Diseased area of at least 25% but less than 50%; Diseased area of at least 50%; settings: wheat seedlings (Norin-61-go), 500 ppm active ingredient, 10 ml per pot, 10 days after inoculation
Experimental: [table] Test for Preventive Effect on Wheat Powdery Mildew 9 wheat seeds (variety: […] Then, the seedlings were inoculated with […] graminis spores in suspension and placed in a greenhouse at 25 to 30° C. 10 days after the inoculation, the total diseases area of the first leaves in each pot was observed and evaluated on the basis of the standards shown in Table 59. The results are shown in Tables 67 to 71.

[2] = test system: Venturia inaequalis; test: Test for Preventive Effect on Apple Scab; type: in vivo; design: key: A: No diseased area; B: Diseased area of less than 25%; C: Diseased area of at least 25% but less than 50%; Diseased area of at least 50%; settings: 14 days after inoculation; for Evaluation (diseased area of the upper two inoculated leaves): apple seedlings (Kogyoku), 500 ppm active ingredient, 20 ml per pot; for Evaluation (diseased areas of the upper two of the inoculated leaves): apple seedlings, wettable powder at 500 ppm active ingredient, preventive
Experimental: [table] Test for Preventive Effect on Apple Scab 5 apple seeds (variety: Kogyoku) were sown in each 9 cm×9 cm polyvinyl chloride pot and grown in a greenhouse for 20 days. […] Then, the seedlings were inoculated with Venturia inaequalis spores in suspension by spraying and immediately placed in a moist chamber at 22° C. for 48 hours. Thereafter, the seedlings were placed in a greenhouse for development of the disease. 14 days after the inoculation, the diseased areas of the upper two of the inoculated leaves were observed and evaluated on the basis of the standards shown in Table 59.

Compound | Evaluation (total diseased area of the first leaves in each pot) [1] | Evaluation (diseased area of the upper two inoculated leaves) [2] | Evaluation (diseased areas of the upper two of the inoculated leaves) [2]
COC(=O)NC(C)c1cccc(-c2ccc(C)cc2)c1 (racemic) [3-7] | A | A | –
COC(=O)NC(C)c1cccc(-c2ccc(C(F)(F)F)cc2)c1 (racemic) [3-17] | A | A | –
COC(=O)NC(C)c1cccc(-c2ccc(Cl)cc2Cl)c1 (racemic) [3-18] | A | A | –
COC(=O)NC(C)c1cc(-c2ccccc2)ccc1F (racemic) [3-26] | B (Diseased area of less than 25%) | A | –
COC(=O)NC(C)c1cc(-c2ccc(C)cc2)ccc1F (racemic) [3-32] | B (Diseased area of less than 25%) | B (Diseased area of less than 25%) | –
CCC(NC(=O)OC)c1cccc(-c2ccccc2)c1 (racemic) [3-101] | B (Diseased area of less than 25%) | – | –
CCC(NC(=O)OC)c1cccc(-c2ccc(Cl)cc2)c1 (racemic) [3-105] | B (Diseased area of less than 25%) | – | –
CCC(NC(=O)OC)c1cccc(-c2ccc(C)cc2)c1 (racemic) [3-107] | B (Diseased area of less than 25%) | B (Diseased area of less than 25%) | –
COC(=O)NCc1cccc(-c2ccccc2Cl)c1 [1-2] | A | – | A
COC(=O)NCc1cccc(-c2cccc(F)c2)c1 [1-6] | A | – | A
COC(=O)NCc1cccc(-c2ccccc2C)c1 [1-10] | A | – | A
CCc1cccc(-c2cccc(CNC(=O)OC)c2)c1 [1-13] | A | – | A
CCc1ccc(-c2cccc(CNC(=O)OC)c2)cc1 [1-14] | B (Diseased area of less than 25%) | – | A
COC(=O)NCc1cccc(-c2cccc(C(C)C)c2)c1 [1-17] | B (Diseased area of less than 25%) | – | A
COC(=O)NCc1cccc(-c2ccc(C(C)C)cc2)c1 [1-18] | A | – | A
COC(=O)NCc1cccc(-c2ccccc2OC)c1 [1-40] | A | – | A
COC(=O)NCc1cccc(-c2ccc(OC(F)(F)F)cc2)c1 [1-72] | A | – | A
COC(=O)NCc1cccc(-c2ccc(Cl)cc2Cl)c1 [1-117] | – | – | A
COC(=O)NCc1cccc(-c2ccc(F)c(F)c2)c1 [1-120] | A | – | A
COC(=O)NCc1cccc(-c2ccc(F)c(Cl)c2)c1 [1-122] | A | – | A
COC(=O)NCc1cccc(-c2ccc(C)c([N+](=O)[O-])c2)c1 [1-137] | – | – | A
CCOC(=O)NCc1cccc(-c2ccccc2)c1 [1-146] | B (Diseased area of less than 25%) | – | B (Diseased area of less than 25%)
CCCCOC(=O)NCc1cccc(-c2ccccc2)c1 [1-148] | B (Diseased area of less than 25%) | – | –
COC(=O)N(C)Cc1cccc(-c2ccccc2)c1 [1-163] | A | – | A
CCN(Cc1cccc(-c2ccccc2)c1)C(=O)OC [1-165] | B (Diseased area of less than 25%) | – | A
CCCN(Cc1cccc(-c2ccccc2)c1)C(=O)OC [1-166] | B (Diseased area of less than 25%) | – | B (Diseased area of less than 25%)
